Laboratory results reported in patent US20120259008A1, “METHOD FOR TREATING ASTHENOPIA” (SUCAMPO AG, priority 2011, published 2012).

How the values were obtained:
Type in all cases: in vivo, human
[1] = single administration of eye drop to a subject who had blurring of vision; conditions: eye drop comprising 0.12%, after single administration, subject with blurring of vision
Description: A subject who had blurring of vision received eye drop comprising 0.12% isopropyl unoprostone. After single administration of it, eye discharge and blurry vision were improved. On the other hand, after single administration of placebo, eye discharge and blurry vision were not improved.

[2] = single administration of eye drop to a subject who had eye pain; conditions: eye drop comprising 0.12%, after single administration, subject with eye pain
Description: A subject who had eye pain received eye drop comprising 0.12% isopropyl unoprostonen. After single administration of it, eye pain was improved. On the other hand, after single administration of placebo, eye pain was not improved.

[3] = eye drop twice a day for seven days to a subject with presbyopia and astigmatism who was difficult to focus on the objects; conditions: eye drop comprising 0.12% twice a day
Description: A subject who was difficult to focus on the objects even using the farsighted glasses received eye drop comprising 0.12% isopropyl unoprostone twice a day. They were presbyopia and astigmatism.

Question: What does the source list for `CCCCCCCC(=O)CC[C@@H]1[C@@H](C/C=C\CCCC(=O)OC(C)C)[C@@H](O)C[C@H]1O` [isopropyl unoprostone, (+)-isopropyl (Z)-7-[(1R,2R,3R,5S)-3,5-dihydroxy-2-(3-oxodecyl)cyclopentyl]hept-5-enoate]?
Answer: blurry vision [1]: improved; eye discharge [1]: improved; eye pain [2]: improved; ability to focus on the objects (accommodative function) ([3]; after seven days administration, subject with presbyopia and astigmatism): able to focus on the objects easier and quicker than before the administration; duration of the improvement in focusing ([3]; seven days administration): continued for three weeks
